In the CheMixHub viscosity set:

Test: xn = mol fraction of the nth substance listed

CC(=O)CC(C)C + CCC(C)(C)O
viscosity [mPa·s]
Settings | 298.15 K | 303.15 K | 308.15 K | 313.15 K
101 kPa, x1 = 0.1 | 2.52 | – | – | –
101 kPa, x1 = 0.2 | 1.823 | – | – | –
101 kPa, x1 = 0.3 | 1.376 | – | – | –
101 kPa, x1 = 0.4 | 1.1 | – | – | –
101 kPa, x1 = 0.5 | 0.928 | – | – | –
101 kPa, x1 = 0.6 | 0.815 | – | – | –
101 kPa, x1 = 0.7 | 0.727 | – | – | –
101 kPa, x1 = 0.8 | 0.65 | – | – | –
101 kPa, x1 = 0.9 | 0.584 | – | – | –
101.3 kPa, x1 = 0.1053 | 2.5 | 2.11 | 1.79 | 1.52
101.3 kPa, x1 = 0.1952 | 1.77 | 1.52 | 1.32 | 1.15
101.3 kPa, x1 = 0.305 | 1.37 | 1.21 | 1.07 | 0.951
101.3 kPa, x1 = 0.4324 | 1.05 | 0.946 | 0.856 | 0.776
101.3 kPa, x1 = 0.495 | 0.95 | 0.866 | 0.786 | 0.721
101.3 kPa, x1 = 0.6 | 0.813 | 0.747 | 0.69 | 0.64
101.3 kPa, x1 = 0.7004 | 0.719 | 0.671 | 0.627 | 0.587
101.3 kPa, x1 = 0.7937 | 0.641 | 0.603 | 0.569 | 0.538
101.3 kPa, x1 = 0.9001 | 0.589 | 0.558 | 0.529 | 0.503

CCOCC + CO
101 kPa
Settings | viscosity [mPa·s]
298.15 K, x1 = 0.115 | 0.4734
298.15 K, x1 = 0.1893 | 0.4296
298.15 K, x1 = 0.2803 | 0.3846
298.15 K, x1 = 0.3957 | 0.3378
298.15 K, x1 = 0.5399 | 0.2953
298.15 K, x1 = 0.7319 | 0.2553
303.16 K, x1 = 0.04 | 0.4893
303.16 K, x1 = 0.09 | 0.4472
303.16 K, x1 = 0.13 | 0.4312
303.16 K, x1 = 0.2 | 0.3881
303.16 K, x1 = 0.27 | 0.3392
303.16 K, x1 = 0.37 | 0.2921
303.16 K, x1 = 0.51 | 0.2772
303.16 K, x1 = 0.67 | 0.2511
303.16 K, x1 = 0.85 | 0.2328

O=C1CCCCC1 + OCCO
293.15 K, 101.33 kPa
Settings | viscosity [mPa·s]
x2 = 0.1495 | 2.735
x2 = 0.2349 | 3.114
x2 = 0.293 | 3.566
x2 = 0.4345 | 4.882
x2 = 0.5042 | 5.922
x2 = 0.5172 | 6.179
x2 = 0.6565 | 9.855
x2 = 0.6965 | 11.02
x2 = 0.7152 | 11.2
x2 = 0.7398 | 12.4
x2 = 0.8522 | 17.59
x2 = 0.8845 | 18.73

CCCCCCO + CO
298.15 K, 101.33 kPa
Settings | viscosity [mPa·s]
x2 = 0.1054 | 3.881
x2 = 0.2016 | 3.351
x2 = 0.3144 | 2.778
x2 = 0.4093 | 2.348
x2 = 0.5053 | 1.968
x2 = 0.6027 | 1.615
x2 = 0.7094 | 1.278
x2 = 0.8038 | 1.001
x2 = 0.9022 | 0.7601
